What was measured:
[1] = mn = molality of the nth substance listed, in mol/kg; conditions: 86.5 kPa, Liquid; for speed of sound: Frequency=3 MHz, Sing-around technique in a fixed-path interferometer; for mass density: Vibrating tube method
[2] = refractive index (Na D-line) (dimensionless); mn = molality of the nth substance listed, in mol/kg; conditions: 86.5 kPa, Liquid, Standard Abbe refractometry

CCCCCCCCn1cc[n+](C)c1.[Br-] [1-methyl-3-octylimidazolium bromide] + c1ccsc1
Conditions | mass density, [1] [kg/m3] | refractive index, [2] | speed of sound, [1] [m/s]
288.15 K, m2 = 0 | 1179.37 | 1.525 | 1605.2
288.15 K, m2 = 0.0087 | 1179.17 | 1.5248 | 1603.7
288.15 K, m2 = 0.022 | 1178.88 | 1.5245 | 1601.5
288.15 K, m2 = 0.032 | 1178.66 | 1.5242 | 1599.9
288.15 K, m2 = 0.0435 | 1178.43 | 1.524 | 1598.3
288.15 K, m2 = 0.0556 | 1178.18 | 1.5238 | 1596.8
288.15 K, m2 = 0.0663 | 1177.97 | 1.5235 | 1595.7
288.15 K, m2 = 0.0821 | 1177.68 | 1.5232 | 1594.3
288.15 K, m2 = 0.0923 | 1177.49 | 1.5229 | 1593.4
288.15 K, m2 = 0.107 | 1177.22 | 1.5226 | 1592.3
288.15 K, m2 = 0.1464 | 1176.57 | 1.5221 | 1590.2
288.15 K, m2 = 0.1765 | 1176.08 | 1.5216 | 1588.8
293.15 K, m2 = 0 | 1176.17 | 1.5236 | 1581.9
293.15 K, m2 = 0.0087 | 1175.97 | 1.5233 | 1581
293.15 K, m2 = 0.022 | 1175.68 | 1.5231 | 1579.5
293.15 K, m2 = 0.032 | 1175.46 | 1.5228 | 1578.6
293.15 K, m2 = 0.0435 | 1175.23 | 1.5226 | 1577.6
293.15 K, m2 = 0.0556 | 1174.97 | 1.5223 | 1576.5
293.15 K, m2 = 0.0663 | 1174.75 | 1.522 | 1575.7
293.15 K, m2 = 0.0821 | 1174.47 | 1.5217 | 1574.6
293.15 K, m2 = 0.0923 | 1174.27 | 1.5214 | 1573.8
293.15 K, m2 = 0.107 | 1174.01 | 1.5211 | 1572.9
293.15 K, m2 = 0.1464 | 1173.34 | 1.5205 | 1571.1
293.15 K, m2 = 0.1765 | 1172.85 | 1.52 | 1570.2
298.15 K, m2 = 0 | 1172.98 | 1.5221 | 1561.9
298.15 K, m2 = 0.0087 | 1172.78 | 1.5219 | 1561.3
298.15 K, m2 = 0.022 | 1172.48 | 1.5216 | 1560.3
298.15 K, m2 = 0.032 | 1172.27 | 1.5213 | 1559.7
298.15 K, m2 = 0.0435 | 1172.02 | 1.521 | 1558.9
298.15 K, m2 = 0.0556 | 1171.78 | 1.5207 | 1558.2
298.15 K, m2 = 0.0663 | 1171.57 | 1.5203 | 1557.5
298.15 K, m2 = 0.0821 | 1171.26 | 1.52 | 1556.5
298.15 K, m2 = 0.0923 | 1171.07 | 1.5197 | 1555.9
298.15 K, m2 = 0.107 | 1170.8 | 1.5193 | 1555.1
298.15 K, m2 = 0.1464 | 1170.16 | 1.5187 | 1553.5
298.15 K, m2 = 0.1765 | 1169.7 | 1.5181 | 1552.3
303.15 K, m2 = 0 | 1169.86 | 1.5206 | 1542.8
303.15 K, m2 = 0.0087 | 1169.65 | 1.5205 | 1542.3
303.15 K, m2 = 0.022 | 1169.35 | 1.5202 | 1541.6
303.15 K, m2 = 0.032 | 1169.13 | 1.5199 | 1541.1
303.15 K, m2 = 0.0435 | 1168.88 | 1.5196 | 1540.7
303.15 K, m2 = 0.0556 | 1168.64 | 1.5192 | 1540.1
303.15 K, m2 = 0.0663 | 1168.42 | 1.5189 | 1539.6
303.15 K, m2 = 0.0821 | 1168.12 | 1.5185 | 1539.1
303.15 K, m2 = 0.0923 | 1167.93 | 1.5182 | 1538.5
303.15 K, m2 = 0.107 | 1167.67 | 1.5179 | 1538
303.15 K, m2 = 0.1464 | 1167.05 | 1.5171 | 1536.6
303.15 K, m2 = 0.1765 | 1166.59 | 1.5166 | 1535.7

CCCCCCn1cc[n+](C)c1.[Br-] [3-hexyl-1-methyl-1H-imidazolium bromide] + c1ccsc1
Conditions | mass density, [1] [kg/m3] | refractive index, [2] | speed of sound, [1] [m/s]
288.15 K, m2 = 0 | 1231.02 | 1.5282 | 1639.4
288.15 K, m2 = 0.0186 | 1230.37 | 1.5277 | 1638.2
288.15 K, m2 = 0.0221 | 1230.25 | 1.5276 | 1638
288.15 K, m2 = 0.0358 | 1229.81 | 1.5273 | 1637.2
288.15 K, m2 = 0.0433 | 1229.58 | 1.5271 | 1636.8
288.15 K, m2 = 0.0632 | 1228.97 | 1.5266 | 1635.7
288.15 K, m2 = 0.0727 | 1228.69 | 1.5264 | 1635.2
288.15 K, m2 = 0.0952 | 1228.1 | 1.5259 | 1634
288.15 K, m2 = 0.1142 | 1227.69 | 1.5255 | 1633
288.15 K, m2 = 0.137 | 1227.21 | 1.5251 | 1631.7
288.15 K, m2 = 0.1603 | 1226.74 | 1.5247 | 1630.7
288.15 K, m2 = 0.1869 | 1226.31 | 1.5242 | 1629.8
293.15 K, m2 = 0 | 1227.43 | 1.5268 | 1610.4
293.15 K, m2 = 0.0186 | 1226.77 | 1.5261 | 1609.5
293.15 K, m2 = 0.0221 | 1226.65 | 1.526 | 1609.3
293.15 K, m2 = 0.0358 | 1226.19 | 1.5257 | 1608.7
293.15 K, m2 = 0.0433 | 1225.96 | 1.5255 | 1608.4
293.15 K, m2 = 0.0632 | 1225.37 | 1.5251 | 1607.5
293.15 K, m2 = 0.0727 | 1225.11 | 1.5249 | 1607.1
293.15 K, m2 = 0.0952 | 1224.52 | 1.5244 | 1606.1
293.15 K, m2 = 0.1142 | 1224.09 | 1.524 | 1605.5
293.15 K, m2 = 0.137 | 1223.63 | 1.5234 | 1604.5
293.15 K, m2 = 0.1603 | 1223.19 | 1.5228 | 1603.7
293.15 K, m2 = 0.1869 | 1222.77 | 1.5223 | 1602.9
298.15 K, m2 = 0 | 1223.74 | 1.5254 | 1587.1
298.15 K, m2 = 0.0186 | 1223.07 | 1.5247 | 1586.3
298.15 K, m2 = 0.0221 | 1222.95 | 1.5246 | 1586.2
298.15 K, m2 = 0.0358 | 1222.49 | 1.5242 | 1585.7
298.15 K, m2 = 0.0433 | 1222.25 | 1.5239 | 1585.4
298.15 K, m2 = 0.0632 | 1221.65 | 1.5233 | 1584.6
298.15 K, m2 = 0.0727 | 1221.38 | 1.523 | 1584.3
298.15 K, m2 = 0.0952 | 1220.8 | 1.5224 | 1583.6
298.15 K, m2 = 0.1142 | 1220.33 | 1.5219 | 1582.9
298.15 K, m2 = 0.137 | 1219.88 | 1.5213 | 1582.2
298.15 K, m2 = 0.1603 | 1219.44 | 1.5208 | 1581.7
298.15 K, m2 = 0.1869 | 1219 | 1.5201 | 1581
303.15 K, m2 = 0 | 1220.35 | 1.5237 | 1568.7
303.15 K, m2 = 0.0186 | 1219.67 | 1.5227 | 1568.1
303.15 K, m2 = 0.0221 | 1219.55 | 1.5226 | 1568
303.15 K, m2 = 0.0358 | 1219.09 | 1.5223 | 1567.6
303.15 K, m2 = 0.0433 | 1218.84 | 1.5221 | 1567.4
303.15 K, m2 = 0.0632 | 1218.25 | 1.5217 | 1566.8
303.15 K, m2 = 0.0727 | 1217.98 | 1.5215 | 1566.6
303.15 K, m2 = 0.0952 | 1217.4 | 1.5211 | 1566
303.15 K, m2 = 0.1142 | 1216.96 | 1.5207 | 1565.5
303.15 K, m2 = 0.137 | 1216.51 | 1.5202 | 1564.9
303.15 K, m2 = 0.1603 | 1216.07 | 1.5197 | 1564.5
303.15 K, m2 = 0.1869 | 1215.66 | 1.5191 | 1564
